Experimental data: patent publication EP3991729A1, “USE OF AMLEXANOX IN PREPARING ANTI-HEPATITIS VIRUS DRUG” (Marine Biomedical Research Institute Of Qingdao Co., Ltd., priority 2019, dated 2020)

How the values were obtained:
[1] = tested on: hepatitis B virus; assay: HBV genomic DNA replication in HepG2 cells transfected with linear HBV genomic DNA, quantitative PCR of circular HBV DNA; format: cell-based, hepatitis B virus (genotype B); conditions: 10µM, HepG2, 96 hours, Figure 1
Description: After 96 hours, cells were divided into two groups, with genomic DNA extracted from one. From the other, free DNA was extracted using HIRT extraction, and linear DNA was removed using DNA exonuclease (NEB). Circular HBV DNA and genomic GAPDH were detected by quantitative PCR. The highest value of circular HBV DNA was defined as 100% (n=5).

[2] = tested on: subtype A hepatitis B virus; assay: Mouse venous hypertension model (genotype A), HBeAg in peripheral blood by ELISA; format: in vivo, Wild-type mice (C57/B6); conditions: twice a day, oral gavage, 9th day after infection, Figure 8
Description: On the 9th day after infection, about 100µl of blood was harvested from each animal, serum was separated, and the concentration of HBeAg in peripheral blood was measured by ELISA.

[3] = tested on: 293 cells; assay: Cytotoxicity test, MTT assay; format: cell-based; conditions: Homo sapiens, HEK293, 72 h, read-out: Inhibition (%) 293
Description: (§1) […]. Various cells in the logarithmic growth phase were seeded in 96-well plates at 6,000 cells/well and cultured for 24h. […]. The dosage of DMSO in the solvent control group was based on the maximum dose of 0.1% used in the test group, with four duplicate wells for each concentration. Cells were treated with the drug for 72h and then added with 20µL 5 mg/mL MTT, cultured at 37°C for 4h, after added 100 µ L triple solution (10% SDS, 5% isobutanol, 12 mM hydrochloric acid), 96-well cell culture plate was placed in an incubator containing 5% CO2 at 37 ± 1°C overnight. OD value at 570nm was measured on a microplate reader.
(§2) The inhibition rate of tumor cell growth was calculated according to the following formula: Inhibition rate(%) = [(OD570controlwell−OD570dosewell)/OD570controlwell] × 100. [formula]

[4] = tested on: A549 cells; assay: Cytotoxicity test, MTT assay; format: cell-based; conditions: Homo sapiens, A549, 72 h, read-out: Inhibition (%) A549
Description: as §1, §2

[5] = tested on: MKN45 cells; assay: Cytotoxicity test, MTT assay; format: cell-based
Description: as §1, §2

[6] = tested on: THP-1 cells; assay: Cytotoxicity test, MTT assay; format: cell-based; conditions: Homo sapiens, THP-1, 72 h, read-out: Inhibition (%) THP -1
Description: as §1, §2

[7] = tested on: Huh7 cells; assay: Cytotoxicity test, MTT assay; format: cell-based
Description: as §1, §2

[8] = tested on: MCF7 cells; assay: Cytotoxicity test, MTT assay; format: cell-based
Description: as §1, §2

[9] = tested on: Hela cells; assay: Cytotoxicity test, MTT assay; format: cell-based; conditions: Homo sapiens, 72 h, read-out: Inhibition (%) Hel a
Description: as §1, §2

[10] = tested on: HepG2, HCT-116, Hela, A549, MCF7, MKN45, THP-1, Huh7, and 293 cells; assay: Cytotoxicity test, MTT assay, summary over the nine kinds of cells; format: cell-based; conditions: 72h
Description: as §1, §2

[11] = tested on: hepatitis B virus; assay: HBsAg in culture supernatant of HBV DNA-transfected HepG2 cells, ELISA; conditions: 10µM, HepG2, 96h after transfection, Figure 2
Description: Hepatocyte HepG2 cells with good growth status were seeded in 6-well plates at 10^6 cells/well and, after being left overnight, 2µg of linear HBV viral genomic DNA (genotype B) was transfected into each well using lipofectamine 2000 to establish a viral infection cell model. […] An equal volume of DMSO (1/1000, v/v) was added to the control group. Forty-eight hours after transfection, cells from each well were passaged into one 6cm culture plate. After transfection, HBsAg levels in the culture supernatant were quantified by ELISA 96h.
Well-grown hepatocyte HepG2 cells 10^6 cells/well were seeded in 6-well plates, and after overnight, 2µg of linear HBV viral genomic DNA (genotype B) was transfected per well using Lipofectamine 2000. […] An equal volume of DMSO (1/1000, v/v) was added to the control group. Forty-eight hours after transfection, cells from each well were passaged into one 6cm culture plate. HBV surface antigen (HBsAg) in the culture medium was detected by ELISA 96h after transfection.

[12] = tested on: hepatitis B virus; assay: Mouse venous hypertension model (genotype A), serum HBsAg by ELISA, dose groups (Example 12); conditions: dose higher than 50 mg/day (converted adult dose), once a day oral gavage, seven days of administration, Figure 15
Description: Six-week-old male C57 mice were rapidly injected with 10µg/mouse of viral genomic DNA (genotype A) by tail vein injection in a short period. Viral infection was established using a venous hypertension model and randomly divided into groups. […] At the same time, a blank control was set up, and oral administration in uninfected mice was equivalent to the model group.
On days 1, 3, and 7 of administration, an appropriate amount of blood was collected from the tail vein of mice in each group. On day 9, the remaining peripheral blood was collected after the mice were sacrificed. All blood samples were centrifuged to obtain serum, divided into two portions. One was used to detect the concentration of HBsAg by ELISA, and the other was used to detect the enzyme activity of alanine aminotransferase (ALT) by alanine aminotransferase kit (colorimetric method) (Nanjing Jiancheng Bioengineering Institute).

[13] = tested on: hepatitis B virus; assay: Mouse venous hypertension model (genotype B), HBV genomic DNA in liver by fluorescence quantitative PCR; format: in vivo, Wild-type mice (C57/B6); conditions: 50 mg/kg/day oral gavage, 11th day after infection, Figure 5
Source text: . On the 11th day after infection, the mice were sacrificed, the livers of the mice were isolated, DpnI was transferred to exclude source DNA, and HBV genomic DNA in the livers of the mice was detected by fluorescence quantitative PCR (n=5).

[14] = Homo sapiens, MKN-45, 72 h, read-out: Inhibition (%) MKN 45
[15] = Homo sapiens, Huh-7, 72 h, read-out: Inhibition (%) Hu h7
[16] = Homo sapiens, MCF7, 72 h, read-out: Inhibition (%) MC F7

CC(C)c1ccc2oc3nc(N)c(C(=O)O)cc3c(=O)c2c1 [amlexanox, Amlexanox]
Circular HBV DNA (hepatitis B virus genomic DNA replication) [1]: inhibits hepatitis B virus genomic DNA replication in cell models with effects comparable to existing clinical drugs | concentration of HBeAg in peripheral blood ([2]; 16 mg/kg/time): still effective | concentration of HBeAg in peripheral blood, dose-response relationship ([2]; 4, 8 and 16 mg/kg/time): its ability to inhibit hepatitis B virus is enhanced in a mouse model of venous hypertension | inhibition at 3.125 µM [3]: 0% | inhibition at 6.25 µM [3]: 0% | inhibition at 12.5 µM [3]: 0% | inhibition at 25 µM [3]: 0% | inhibition at 50 µM [3]: 0% | inhibition at 100 µM [3]: 11.3% | inhibition at 3.125 µM [4]: 3.55% | inhibition at 6.25 µM [4]: 1.31% | inhibition at 12.5 µM [4]: 0.65% | inhibition at 25 µM [4]: 0% | inhibition at 50 µM [4]: 1.08% | inhibition at 100 µM [4]: 4.54% | inhibition at 3.125 µM [5, 14]: 0% | inhibition at 6.25 µM [5, 14]: 3.61% | inhibition at 12.5 µM [5, 14]: 4.9% | inhibition at 25 µM [5, 14]: 9.22% | inhibition at 50 µM [5, 14]: 13.9% | inhibition at 100 µM [5, 14]: 30.9% | cytotoxicity ([5]; MKN45, 100 µM, 72h): some cytotoxicity | inhibition at 3.125 µM [6]: 0% | inhibition at 6.25 µM [6]: 0% | inhibition at 12.5 µM [6]: 0% | inhibition at 25 µM [6]: 0% | inhibition at 50 µM [6]: 0% | inhibition at 100 µM [6]: 7.44% | inhibition at 3.125 µM [7, 15]: 0% | inhibition at 6.25 µM [7, 15]: 7.28% | inhibition at 12.5 µM [7, 15]: 15% | inhibition at 25 µM [7, 15]: 18.1% | inhibition at 50 µM [7, 15]: 26.2% | inhibition at 100 µM [7, 15]: 35.2% | cytotoxicity ([7]; Huh7, 100 µM, 72h): some cytotoxicity | inhibition at 3.125 µM [8, 16]: 1.03% | inhibition at 6.25 µM [8, 16]: 0.86% | inhibition at 12.5 µM [8, 16]: 1.22% | inhibition at 25 µM [8, 16]: 3.8% | inhibition at 50 µM [8, 16]: 16.4% | inhibition at 100 µM [8, 16]: 43.5% | cytotoxicity ([8]; MCF7, 100 µM, 72h): some cytotoxicity | inhibition at 3.125 µM [9]: 3.08% | inhibition at 6.25 µM [9]: 2.48% | inhibition at 12.5 µM [9]: 1.7% | inhibition at 25 µM [9]: 0.79% | inhibition at 50 µM [9]: 1.89% | inhibition at 100 µM [9]: 6.15% | cytotoxicity ([10]; nine kinds of cells, below the concentration of 50 µM): no obvious cytotoxicity | cytotoxicity ([10]; remaining five cells (other than MKN45, HCT-116, MCF7, Huh7), 100 µM): no significant cytotoxicity | HBsAg levels in the culture supernatant [11]: reduces HBsAg levels in cell models, and its effect is superior to that of existing clinical drugs | concentration of HBsAg in serum [12]: significantly reduced surface antigen (HBsAg) levels | HBV genomic DNA in the livers of the mice [13]: can significantly inhibit the load of viral DNA, and its effect is not lower than that of clinically used nucleotide-like drugs lamivudine and entecavir
